Laboratory results as given in PubChem BioAssay AID220 (DTP/NCI, 2004).
Values joined by “and” are separate entries in the source; they are usually repeats but may differ in a detail not shown here. Equal values may be shown once. Results filed as inconclusive are left out. Positions of bridges follow the written chain, without caps; N, C: chain ends. Residues, ends and D or L forms follow the SMILES beside them.

System: CD8F1 mice, subcutaneous mammary adenocarcinoma, T/C%
Experiment: NCI In Vivo Anticancer Drug Screen. Data for tumor model Mammary Adenocarcinoma CD8F1 (subcutaneous) in CD8F1
Conditions: higher = larger tumour
How it was run: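 Transplantable tumors were established in mice, animals were dosed with compound or vehicle, and survival or tumor size was then measured in both groups. The treated result was divided by the control result.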

[1] = endpoint: median tumor weight change, dose: 31.25 mg/kg/injection, schedule: Q01DX001 (ip), vehicle: Klucel (hydroxypropylcellulose) (HPC)
[2] = endpoint: median tumor weight change, dose: 62.5 mg/kg/injection, schedule: Q01DX001 (ip), vehicle: Klucel (hydroxypropylcellulose) (HPC)
[3] = endpoint: median tumor weight change, dose: 125.0 mg/kg/injection, schedule: Q01DX001 (ip), vehicle: Klucel (hydroxypropylcellulose) (HPC)
[4] = endpoint: median tumor weight (est.), dose: 25.0 mg/kg/injection, schedule: Q07DX005 (ip), vehicle: Klucel (hydroxypropylcellulose) (HPC)
[5] = endpoint: median tumor weight (est.), dose: 100.0 mg/kg/injection, schedule: Q07DX005 (ip), vehicle: Klucel (hydroxypropylcellulose) (HPC)

`CCC(C)C1NC(=O)C(CC(C)C)NC(=O)C(C(C)C)NC(=O)C2CSSCC(NC1=O)C(=O)N2` (stereo not given) (cyclo(CCVLI); disulfide 1-2; configuration not given here) was tested, and the T/C (endpoint: median tumor weight change, dose: 0.31 mg/kg/injection, schedule: Q01DX001 (ip), vehicle: Klucel (hydroxypropylcellulose) (HPC)) was 78 % of control, the T/C (endpoint: median tumor weight change, dose: 0.62 mg/kg/injection, schedule: Q01DX001 (ip), vehicle: Klucel (hydroxypropylcellulose) (HPC)) was 118 % of control and the T/C (endpoint: median tumor weight change, dose: 1.25 mg/kg/injection, schedule: Q01DX001 (ip), vehicle: Klucel (hydroxypropylcellulose) (HPC)) was 74 % of control. The T/C (endpoint: median tumor weight change, dose: 2.5 mg/kg/injection, schedule: Q01DX001 (ip), vehicle: Klucel (hydroxypropylcellulose) (HPC)) was 94 % of control and the T/C (endpoint: median tumor weight change, dose: 5.0 mg/kg/injection, schedule: Q01DX001 (ip), vehicle: Klucel (hydroxypropylcellulose) (HPC)) was 111 % of control.

In the case of `CC(=O)Nc1ccc(/C=N/NC(N)=S)cc1`, the T/C [1] is reported as 96 % of control, the T/C [2] is reported as 84 % of control and the T/C [3] is reported as 103 % of control. For the same compound, the T/C (endpoint: median tumor weight change, dose: 250.0 mg/kg/injection, schedule: Q01DX001 (ip), vehicle: Klucel (hydroxypropylcellulose) (HPC)) was 48 % of control and the T/C (endpoint: median tumor weight change, dose: 500.0 mg/kg/injection, schedule: Q01DX001 (ip), vehicle: Klucel (hydroxypropylcellulose) (HPC)) was 99 % of control.

In the case of `CC(=O)NNC(=O)c1ccccn1`, the T/C (endpoint: mean tumor weight, dose: 25.0 mg/kg/injection, schedule: Q01DX009 (ip), vehicle: saline) is reported as 28 % of control, the T/C (endpoint: mean tumor weight, dose: 50.0 mg/kg/injection, schedule: Q07DX004 (ip), vehicle: saline) is reported as 112 % of control and the T/C (endpoint: mean tumor weight, dose: 100.0 mg/kg/injection, schedule: Q01DX009 (ip), vehicle: saline) is reported as 32 % of control. For the same compound, the T/C (endpoint: mean tumor weight, dose: 100.0 mg/kg/injection, schedule: Q07DX004 (ip), vehicle: saline) was 74 % of control, the T/C (endpoint: mean tumor weight, dose: 100.0 mg/kg/injection, schedule: Q07DX005 (ip), vehicle: saline) was 99 % of control and the T/C (endpoint: mean tumor weight, dose: 200.0 mg/kg/injection, schedule: Q07DX004 (ip), vehicle: saline) was 56 % of control. For the same compound, the T/C (endpoint: mean tumor weight, dose: 200.0 mg/kg/injection, schedule: Q07DX005 (ip), vehicle: saline) was 82 % of control.

With `COc1c(C=O)c2c(c(OC)c1OC)-c1ccc(OC)c(=O)cc1[C@@H](NC(C)=O)CC2` the T/C (endpoint: median tumor weight change, dose: 8.0 mg/kg/injection, schedule: Q01DX001 (ip), vehicle: Klucel (hydroxypropylcellulose) (HPC)) was 76 % of control, the T/C (endpoint: median tumor weight change, dose: 15.62 mg/kg/injection, schedule: Q01DX001 (ip), vehicle: Klucel (hydroxypropylcellulose) (HPC)) was 93 % of control and the T/C (endpoint: median tumor weight change, dose: 16.0 mg/kg/injection, schedule: Q01DX001 (ip), vehicle: Klucel (hydroxypropylcellulose) (HPC)) was 88 % of control. For the same compound, the T/C (endpoint: median tumor weight change, dose: 31.0 mg/kg/injection, schedule: Q01DX001 (ip), vehicle: Klucel (hydroxypropylcellulose) (HPC)) was 54 % of control, the T/C [1] was 69 % of control and the T/C (endpoint: median tumor weight change, dose: 62.0 mg/kg/injection, schedule: Q01DX001 (ip), vehicle: Klucel (hydroxypropylcellulose) (HPC)) was 17 % of control. For the same compound, the T/C [2] was 7 % of control.

With `CC(C)CC(NC(=O)CF)C(=O)O` (stereo not given) the T/C (endpoint: median tumor weight (est.), dose: 0.62 mg/kg/injection, schedule: Q07DX005 (ip), vehicle: saline) was 81 % of control, the T/C (endpoint: median tumor weight (est.), dose: 2.5 mg/kg/injection, schedule: Q07DX005 (ip), vehicle: saline) was 39 % of control and the T/C (endpoint: median tumor weight (est.), dose: 5.0 mg/kg/injection, schedule: Q07DX005 (ip), vehicle: saline) was 99 % of control. The T/C (endpoint: median tumor weight (est.), dose: 10.0 mg/kg/injection, schedule: Q07DX005 (ip), vehicle: saline) was 41 % of control.

With `CC(C)(C)C1CCCCC1` the T/C (endpoint: median tumor weight (est.), dose: 12.5 mg/kg/injection, schedule: Q07DX005 (ip), vehicle: Klucel (hydroxypropylcellulose) (HPC)) was 85 % of control, the T/C [4] was 69 % of control and the T/C [5] was 94 % of control. For the same compound, the T/C (endpoint: median tumor weight (est.), dose: 200.0 mg/kg/injection, schedule: Q07DX005 (ip), vehicle: Klucel (hydroxypropylcellulose) (HPC)) was 73 % of control and the T/C (endpoint: median tumor weight (est.), dose: 400.0 mg/kg/injection, schedule: Q07DX005 (ip), vehicle: Klucel (hydroxypropylcellulose) (HPC)) was 69 % of control.

With `O=c1ccc2ccccc2o1` the T/C [3] was 90 % of control.

In the case of `CC(C)C(N)C(=O)Nc1nncs1` (stereo not given), the T/C (endpoint: median tumor weight change, dose: 125.0 mg/kg/injection, schedule: Q01DX001 (ip), vehicle: saline) is reported as 119 % of control, the T/C (endpoint: median tumor weight change, dose: 250.0 mg/kg/injection, schedule: Q01DX001 (ip), vehicle: saline) is reported as 171 % of control and the T/C (endpoint: median tumor weight change, dose: 500.0 mg/kg/injection, schedule: Q01DX001 (ip), vehicle: saline) is reported as 82 % of control. For the same compound, the T/C (endpoint: median tumor weight change, dose: 1000.0 mg/kg/injection, schedule: Q01DX001 (ip), vehicle: saline) was 81 % of control.

For `CN(C)c1ccc2c(NCCCCCCNc3ccnc4cc(N(C)C)ccc34)ccnc2c1`, the T/C (endpoint: median tumor weight change, dose: 15.62 mg/kg/injection, schedule: Q01DX001 (ip), vehicle: distilled water + Tween-80 + alcohol) was 66 % of control, the T/C (endpoint: median tumor weight change, dose: 31.0 mg/kg/injection, schedule: Q01DX001 (ip), vehicle: distilled water + Tween-80 + alcohol) was 94 % of control and the T/C (endpoint: median tumor weight change, dose: 31.25 mg/kg/injection, schedule: Q01DX001 (ip), vehicle: distilled water + Tween-80 + alcohol) was 96 % of control. The T/C (endpoint: median tumor weight change, dose: 62.5 mg/kg/injection, schedule: Q01DX001 (ip), vehicle: distilled water + Tween-80 + alcohol) was 3 % of control, the T/C (endpoint: median tumor weight change, dose: 62.5 mg/kg/injection, schedule: Q01DX001 (ip), vehicle: distilled water + Tween-80) was 48 % of control and the T/C (endpoint: median tumor weight change, dose: 125.0 mg/kg/injection, schedule: Q01DX001 (ip), vehicle: distilled water + Tween-80 + alcohol) was 51 % of control. For the same compound, the T/C (endpoint: median tumor weight change, dose: 250.0 mg/kg/injection, schedule: Q01DX001 (ip), vehicle: distilled water + Tween-80 + alcohol) was 8 % of control and 28 % of control.

For `COc1cc(C2c3cc4c(cc3C(O)C(CO)C2CO)OCO4)cc(OC)c1OC` (stereo not given), the T/C (endpoint: median tumor weight change, dose: 125.0 mg/kg/injection, schedule: Q01DX001 (ip), vehicle: saline with Tween-80) was 85 % of control, the T/C (endpoint: median tumor weight change, dose: 250.0 mg/kg/injection, schedule: Q01DX001 (ip), vehicle: saline with Tween-80) was 102 % of control and the T/C (endpoint: median tumor weight change, dose: 500.0 mg/kg/injection, schedule: Q01DX001 (ip), vehicle: saline with Tween-80) was 77 % of control. The T/C (endpoint: median tumor weight change, dose: 1000.0 mg/kg/injection, schedule: Q01DX001 (ip), vehicle: saline with Tween-80) was 95 % of control and the T/C (endpoint: median tumor weight change, dose: 2000.0 mg/kg/injection, schedule: Q01DX001 (ip), vehicle: saline with Tween-80) was 50 % of control.

With `COc1c(O)c2c(c3cc(C(=O)N4CCc5c4c(O)c(OC)c4[nH]c(C(=O)N6CC7CC78C6=CC(=O)c6[nH]cc(C)c68)cc54)[nH]c13)CCN2C(N)=O` (stereo not given) the T/C (endpoint: median tumor weight (est.), dose: 6.25 micrograms/kg/injection, schedule: Q07DX005 (ip), vehicle: DMSO) was 97 % of control and the T/C (endpoint: median tumor weight (est.), dose: 12.5 micrograms/kg/injection, schedule: Q07DX005 (ip), vehicle: DMSO) was 42 % of control.

`CN(C)N=Nc1ccccc1` was tested, and the T/C [4] was 87 % of control and the T/C [5] was 78 % of control.

In the case of `CC(C)[NH-].CC(C)[NH-].O.O.[Cl][Pt+2][Cl]`, the T/C (endpoint: median tumor weight (est.), dose: 6.25 mg/kg/injection, schedule: Q07DX005 (ip), vehicle: dextrose) is reported as 121 % of control, the T/C (endpoint: median tumor weight (est.), dose: 12.5 mg/kg/injection, schedule: Q07DX005 (ip), vehicle: dextrose) is reported as 121 % of control and the T/C (endpoint: median tumor weight (est.), dose: 25.0 mg/kg/injection, schedule: Q07DX005 (ip), vehicle: dextrose) is reported as 110 % of control. The T/C (endpoint: median tumor weight (est.), dose: 50.0 mg/kg/injection, schedule: Q07DX005 (ip), vehicle: dextrose) was 8 % of control.

For `COc1cccc2c1C(=O)c1c(O)c3c(c(O)c1C2=O)CC(O)(/C(C)=N/NC(=O)CCC(=O)N/N=C(\C)C1(O)Cc2c(O)c4c(c(O)c2C(OC2CC(N)C(O)C(C)O2)C1)C(=O)c1c(OC)cccc1C4=O)CC3OC1CC(N)C(O)C(C)O1` (stereo not given), the T/C (endpoint: median tumor weight (est.), dose: 1.5 mg/kg/injection, schedule: Q07DX005 (ip), vehicle: water) was 167 % of control, the T/C (endpoint: median tumor weight (est.), dose: 6.0 mg/kg/injection, schedule: Q07DX005 (ip), vehicle: water) was 45 % of control and the T/C (endpoint: median tumor weight (est.), dose: 12.0 mg/kg/injection, schedule: Q07DX005 (ip), vehicle: water) was 17 % of control and 40 % of control. For the same compound, the T/C (endpoint: median tumor weight (est.), dose: 24.0 mg/kg/injection, schedule: Q07DX005 (ip), vehicle: water) was 7 % of control.

`CC(C)CCCCCCCCCCCCC(=O)NCC(=O)NC1C(C)OC(Nc2ncnc3nc[nH]c23)C(O)C1O` (stereo not given) was tested, and the T/C (endpoint: median tumor weight (est.), dose: 8.0 mg/kg/injection, schedule: Q07DX005 (ip), vehicle: distilled water + Tween-80) was 51 % of control and the T/C (endpoint: median tumor weight (est.), dose: 16.0 mg/kg/injection, schedule: Q07DX005 (ip), vehicle: distilled water + Tween-80) was 12 % of control.

`COC(=Nc1ccccc1)SSC(C)C` was tested, and the T/C (endpoint: median tumor weight (est.), dose: 100.0 mg/kg/injection, schedule: Q07DX005 (ip), vehicle: saline with Tween-80) was 43 % of control and 46 % of control.
